According to US9452997B2, “Piperidine and piperazine derivatives as autotaxin inhibitors” (Merck Patent GmbH, priority 2009, dated 2016):

What follows are compounds tested against T1, Recombinant autotaxin (Homo sapiens, UniProt Q13822) (assay: Autotaxin assay (Amplex Red, LPC substrate)). Details: recombinant autotaxin, LPC substrate, Amplex Red detection; values given as upper bounds.
T1 construct: made in house; host or cells: Hi5 insect cells (baculovirus)
Format: biochemical
Protocol: Autotaxin activity is measured indirectly by means of Amplex Red Reagent. In this course, Amplex Red is measured as fluorogenic indicator for generated H2O2. Autotaxin converts substrate lysophosphatidylcholine (LPC) to phosphocholine and lysophosphatidylic acid (LPA). After the conversion phosphocholine is reacted with alkaline phosphatase to obtain inorganic phosphate and choline. During the next step choline is oxidized with choline oxidase to yield betaine, whereby H2O2 is generated. H2O2 reacts with Amplex Red Reagent in the presence of peroxidase (Horseradish peroxidase) in an 1:1 stochiometry and yields highly fluorescent resorufin. The generated fluorescence is measured in a reaction-dependent kinetic mode in order to enable subtraction of fluorescence signals of possible other fluorescent compounds that are not part of the reaction from total measured fluorescence.
1.5 μl of a standard solution or of the compounds of the invention are dissolved in 20 mM Hepes pH 7.2 with maximally 7.7% DMSO in individual concentrations. The resulting solution is pre-incubated together with 10 μl (16 ng) of highly purified recombinant autotaxin in a black 384-hole microtiter plate for 30 min at 22° C.
Thereafter, the reaction is started through the addition of 5 μL-a-lysophosphatidyl-choline (LPC), whereby the final concentration of LPC is 75 μM. The mixture is incubated for 90 min. at 37° C. After the incubation Amplex Red Reagent, peroxidase (Horseradish peroxidase) and choline oxidase are added. The fluorescence is immediately measured at a wavelength of 612 nm with an excitation wavelength of 485 nm in a “Tecan Ultra multimode” fluorescence reader. The activity of autotaxin is indirectly calculated via the amount of detected generated H2O2.
For IC50 analysis, ten serial 1:3 dilutions starting at 30 μM for each compound were run in duplicates.
IC50 values were calculated on normalized data. For normalization, control wells were added to each assay plate and the signal of uninhibited control wells was set to 100%, whereas the signal inhibited by 500 μM C14 LPA, (Avanti Polar Lipids, Cat#857120P) was set to 0%. Curves were fitted and IC50 values calculated by the following model using proprietory analysis software: Y=Bottom+(100−Bottom)/(1+10^((Log IC50−X)*HillSlope)) Where X is the logarithm of concentration. Y is the response; Y starts at Bottom and goes to Top with a sigmoid shape. Material
Microtiter plate: PS-Microplate, 384-hole, small volume, black Corning, Cat#3677
Protein: Recombinant autotaxin (baculoviral Hi5 expression)
Substrate: L-a-lysophosphatidyl choline (chicken egg); Avanti Polar Lipids #830071P
Standard: C14 LPA, Avanti Polar Lipids, Cat#857120P
Detection Reagent: Amplex Red Reagent; Invitrogen #A12222; dissolved in 1.923 ml of DMSO peroxidase Type VI-A (horseradish), Sigma #P6782; dissolved in 7.45 ml of test buffer, Choline Oxidase; Sigma #C5896; dissolved in 2.47 ml test buffer
Detection Reagent Mix: 1:100 dilution of Amplex Red Regent in test buffer
Test buffer: 200 mM Tris-HCl, Merck, Cat #1.08219, pH 7.9; 0.1% BSA, lipid free, Roche Cat#775835

Compound	IC50 [µM]
O=C(NCCc1cccnc1)C1CC(=O)N(C2CCN(C(=O)OCc3cc(Cl)cc(Cl)c3)CC2)C1 (stereo not shown) [Compound 30, 4-[2-Oxo-4-(2-pyridin-3-yl-ethylcarbamoyl)-pyrrolidin-1-yl]-piperidine-1-carboxylic acid 3,5-dichloro-benzyl ester]	< 30
O=C(OCc1ccc(C(F)(F)F)cc1)N1CCC(n2ccc(-c3ccc4[nH]c(=O)oc4c3)n2)CC1 [Compound 108]	< 10
O=C(c1ccc2[nH]nnc2c1)N1CCC(N2CCN(C(=O)C3CC3c3ccc(Cl)cc3)CC2)CC1 (stereo not shown) [Compound 179, (1H-Benzoriazol-5-yl)-(4-{4-[2-(4-chloro-phenyl)-cyclopropanecarbonyl]-piperazin-1-yl}-piperidin-1-yl)-methanone]	< 10
Cc1ccc(C(C)CC(=O)N2CCN(C3CCN(C(=O)c4ccc5[nH]nnc5c4)CC3)CC2)cc1C (stereo not shown) [Compound 176, 1-{4-[1-(1H-Benzotriazole-5-carbonyl)-piperidin-4-yl]-piperazin-1-yl}-3-(3,4-dimethyl-phenyl)-butan-1-one]	< 30
O=C(OCc1ccc(C(F)(F)F)cc1)N1CCC(N2CCC(c3ccc4[nH]c(=O)oc4c3)=N2)CC1 [Compound 107, 4-[3-(2-Oxo-2,3-dihydro-benzooxazol-6-yl)-4,5-dihydro-pyrazol-1-yl]-piperidine-1-carboxylic acid 4-trifluoromethyl-benzyl ester]	< 10
Cc1nc(-c2ccc(C(F)(F)F)cc2)sc1C(=O)N1CCN(C2CCN(C(=O)c3ccc4[nH]nnc4c3)CC2)CC1 [Compound 48, (1H-Benzotriazol-5-yl)-(4-{4-[4-methyl-2-(4-trifluoromethyl-phenyl)-thiazole-5-carbonyl]-piperazin-1-yl}-piperidin-1-yl)-methanone]	< 10
Cc1nc(-c2ccc(C(F)(F)F)cc2)sc1C(=O)N1CCC(N2CC(C(=O)Nc3ccc4[nH]nnc4c3)CC2=O)CC1 (stereo not shown) [Compound 24, 1-{1-[4-Methyl-2-(4-trifluoromethyl-phenyl)-thiazole-5-carbonyl]-piperidin-4-yl}-5-oxo-pyrrolidine-3-carboxylic acid (1H-benzotriazol-5-yl)-amide]	< 10
CN(C1CCN(C(=O)OCc2ccc(C(F)(F)F)cc2)CC1)C1CCN(C(=O)c2ccc3[nH]nnc3c2)C1 (stereo not shown) [Compound 182, 4-{[1-(1H-Benzotriazole-5-carbonyl)-pyrrolidin-3-yl]-methyl-amino}-piperidine-1-carboxylic acid 4-trifluoromethyl-benzyl ester]	< 10
O=C(Nc1ccc(Cl)c(C(F)(F)F)c1)C(=O)N1CCN(C2CCN(C(=O)c3ccc4[nH]nnc4c3)CC2)CC1 [Compound 72, 2-{4-[1-(1H-Benzotriazole-5-carbonyl)-piperidin-4-yl]-piperazin-1-yl}-N-(4-chloro-3-trifluoromethyl-phenyl)-2-oxo-acetamide]	< 10
Cc1c(Br)cc(CCC(=O)N2CCN(C3CCN(C(=O)c4ccc5[nH]nnc5c4)CC3)CC2)cc1Br [Compound 130, 1-{4-[1-(1H-Benzotriazole-5-carbonyl)-piperidin-4-yl]-piperazin-1-yl}-3-(3,5-dibromo-4-methyl-phenyl)-propan-1-one]	< 10
O=C(Nc1ccc2[nH]nnc2c1)c1cncc(N2CCN(C(=O)OCc3ccc(Cl)cc3)CC2)c1 [Compound 6, 4-[5-(1H-Benzotriazol-5-ylcarbamoyl)-pyridin-3-yl]-piperazine-1-carboxylic acid 4-chloro-benzyl ester]	< 30
CC1=NN(c2ccc(NC(=O)C3CC(=O)N(C4CCN(C(=O)OCc5cc(Cl)cc(Cl)c5)CC4)C3)cc2)C(=O)C1 (stereo not shown) [Compound 56, 4-{4-[4-(3-Methyl-5-oxo-4,5-dihydro-pyrazol-1-yl)-phenylcarbamoyl]-2-oxo-pyrrolidin-1-yl}-piperidine-1-carboxylic acid 3,5-dichloro-benzyl ester]	< 10
O=C(/C=C/c1c[nH]cn1)N1CCN(C2CCN(C(=O)CCc3ccc(C(F)(F)F)cc3)CC2)CC1 [Compound 58, (E)-3-(3H-Imidazol-4-yl)-1-(4-{1-[3-(4-trifluoromethyl-phenyl)-propionyl]-piperidin-4-yl}-piperazin-1-yl)-propenone]	< 10

Further lines, results first:

IC50 [µM]	Compound
< 10	O=C(CCc1cc(Cl)c(F)c(Cl)c1)N1CCC(N2CCN(C(=O)c3ccc4[nH]nnc4c3)CC2)CC1 [Compound 133, 1-{4-[4-(1H-Benzotriazole-5-carbonyl)-piperazin-1-yl]-piperidin-1-yl}-3-(3,5-dichloro-4-fluoro-phenyl)-propan-1-one]
< 1	O=C(OCc1ccc(C(F)(F)F)c(Cl)c1)N1CCN(C2CCN(C(=O)c3ccc4[nH]nnc4c3)CC2)CC1 [Compound 96, 4-[1-(1H-Benzotriazole-5-carbonyl)-piperidin-4-yl]-piperazine-1-carboxylic acid 3-chloro-4-trifluoromethyl-benzyl ester]
< 1	O=C(CCc1ccc(C(F)(F)F)cc1)N1CCC(C2CCN(C(=O)c3ccc4[nH]nnc4c3)CC2)CC1 [Compound 22, 1-[1′-(1H-Benzotriazole-5-carbonyl)-[4,4′]bipiperidinyl-1-yl]-3-(4-trifluoromethyl-phenyl)-propan-1-one]
< 10	O=C(NCCc1ccncc1)C1CC(=O)N(C2CCN(C(=O)OCc3cc(Cl)cc(Cl)c3)CC2)C1 (stereo not shown) [Compound 28, 4-[2-Oxo-4-(2-pyridin-4-yl-ethylcarbamoyl)-pyrrolidin-1-yl]-piperidine-1-carboxylic acid 3,5-dichloro-benzyl ester]
< 10	O=C(OCc1ccc(C(F)(F)F)cc1)N1CCC(NC2CCN(C(=O)c3ccc4[nH]nnc4c3)CC2)C1 (stereo not shown) [Compound 68, 3-[1-(1H-Benzotriazole-5-carbonyl)-piperidin-4-ylamino]-pyrrolidine-1-carboxylic acid 4-trifluoromethyl-benzyl ester]
< 1	O=C(OCc1ccc(C(F)(F)F)cc1F)N1CCC(N2CCN(C(=O)c3ccc4[nH]nnc4c3)CC2)CC1 [Compound 73, 4-[4-(1H-Benzotriazole-5-carbonyl)-piperazin-1-yl]-piperidine-1-carboxylic acid 2-fluoro-4-trifluoromethyl-benzyl ester]
< 10	CC(OC(=O)N1CCN(C2CCN(C(=O)c3ccc4[nH]nnc4c3)CC2)CC1)c1cc(C(F)(F)F)cc(C(F)(F)F)c1 (stereo not shown) [Compound 172, 4-[1-(1H-Benzotriazole-5-carbonyl)-piperidin-4-yl]-piperazine-1-carboxylic acid 1-(3,5-bis-trifluoromethyl-phenyl)-ethyl ester]
< 1	O=C(OCc1cc(Cl)c(F)c(Cl)c1)N1CCC(N2CCN(C(=O)c3ccc4[nH]nnc4c3)CC2)CC1 [Compound 93, 4-[4-(1H-Benzotriazole-5-carbonyl)-piperazin-1-yl]-piperidine-1-carboxylic acid 3,5-dichloro-4-fluoro-benzyl ester]
< 10	CS(=O)(=O)Nc1ccc(C(=O)N2CCN(C3CCN(C(=O)CCc4ccc(C(F)(F)F)cc4)CC3)CC2)cc1 [Compound 59, N-[4-(4-{1-[3-(4-Trifluoromethyl-phenyl)-propionyl]-piperidin-4-yl}-piperazine-1-carbonyl)-phenyl]-methanesulfonamide]
< 1	CC(C)c1ccc(COC(=O)N2CCC(N3CCN(C(=O)c4ccc5[nH]nnc5c4)CC3)CC2)cc1 [Compound 87, 4-[4-(1H-Benzotriazole-5-carbonyl)-piperazin-1-yl]-piperidine-1-carboxylic acid 4-isopropyl-benzyl ester]
< 1	O=C(OCc1ccc(OC(F)F)cc1)N1CCN(C2CCN(C(=O)c3ccc4[nH]nnc4c3)CC2)CC1 [Compound 167, 4-[1-(1H-Benzotriazole-5-carbonyl)-piperidin-4-yl]-piperazine-1-carboxylic acid 4-difluoromethoxy-benzyl ester]
< 1	O=C(OCc1cc(Br)cc(Br)c1)N1CCN(C2CCN(C(=O)c3ccc4[nH]nnc4c3)CC2)CC1 [Compound 148, 4-[1-(1H-Benzotriazole-5-carbonyl)-piperidin-4-yl]-piperazine-1-carboxylic acid 3,5-dibromo-benzyl ester]
